Assay results taken from patent publication US11339171B2, “MDM2 inhibitors” (Gan & Lee Pharmaceuticals, priority 2017, dated 2022).

target: T1, MDM2 (Homo sapiens, UniProt Q00987); test: Inhibition test of MDM2-P53 (GST-MDM2, Biotin-P53, Anti-GST-Tb, SA-XL665); format: binding; settings: labels are Example numbers; the compounds with S-configuration are meant
T1 construct: made in house
Method: Experimental purpose: To determine the inhibitory activities of the compounds of the present invention on MDM2.
The present experiment uses the following assay methods/instruments/reagents:
Buffer: 1×PBS+0.1% BSA+5 mM DTT; MDM2 Buffer: Buffer+1 mM AEBSF
GST-MDM2: The final concentration is 4 nM, and it is required to formulate a 20 nM (5×) solution. A mother liquor is diluted by 3500 folds, wherein the mother liquor is 10-fold diluted first, and then 350-fold diluted.
Anti-GST-Tb: The final concentration is 2×, and a mother liquor is diluted by 50 folds.
MIX: GST-MDM2, Biotin-P53, SA-XL665 and Anti-GST-Tb were mixed according to a ratio of 4:4:5:5.
Sample: Preparation of a sample (10 mM in DMSO) solution: a. 3 μL sample+7 μL DMSO+20 μL DMSO were formulated to give an initial concentration of 1 mM and mixed well; b. in plate 1, twelve 5-fold serial dilutions (sequentially prepared by adding 10 μL of the last sample to 40 μL DMSO) were prepared and mixed well, individually; c. plate 2 was taken, 45 μL of Buffer was added to each well, and 5 μL of dilution at each concentration was taken from plate 1 and added to the corresponding well in plate 2 (the concentration in well 1 was 100 μM), and mixed well.
1. 18 μL of MIX was added to a 384-well plate, and centrifugation was performed at 4500 rpm for 5 min.
2. 2 μL of sample was added correspondingly to each well, the resultant was centrifuged at 25° C. and 4500 rpm for 5 min, and shaked at 25° C. for 90 min on a shaker.
Readings were obtained from the Microplate reader, and data was processed by Graphpad Prism 6.0.

T1 sequence (Q00987 whole entry): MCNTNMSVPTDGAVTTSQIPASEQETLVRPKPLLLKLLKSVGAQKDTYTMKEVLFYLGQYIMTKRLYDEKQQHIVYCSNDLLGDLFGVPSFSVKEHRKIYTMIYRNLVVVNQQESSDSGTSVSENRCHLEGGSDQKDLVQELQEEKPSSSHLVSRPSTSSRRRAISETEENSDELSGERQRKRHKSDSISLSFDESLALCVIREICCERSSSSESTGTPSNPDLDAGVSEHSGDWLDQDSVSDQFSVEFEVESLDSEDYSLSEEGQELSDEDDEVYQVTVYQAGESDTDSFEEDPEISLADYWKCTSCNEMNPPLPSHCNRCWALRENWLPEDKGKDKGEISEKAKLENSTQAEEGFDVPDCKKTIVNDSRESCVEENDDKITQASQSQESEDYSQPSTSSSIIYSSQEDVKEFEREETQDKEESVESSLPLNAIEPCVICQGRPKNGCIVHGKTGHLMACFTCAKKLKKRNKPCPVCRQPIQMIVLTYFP

SMILES	inhibitory effect on MDM2 compared with positive control compound HDM201
COc1ccc(-c2nc3c(n2C(C)C)C2(C(=O)Nc4cc(Cl)ccc42)N(c2cc(Cl)c(=O)n(C)c2)C3=O)c(OC)c1 (stereo not drawn) [Example 52, 6-chloro-5′-(5-chloro-1-methyl-6-oxo-1,6-dihydropyridin-3-yl)-2′-(2,4-dimethoxyphenyl)-3′-isopropyl-3′H-spiro[dihydroindole-3,4′-pyrrolo[3,4-d]imidazole]-2,6′(5′H)-dione]	better
COc1ccccc1-c1nc2c(n1C(C)C)C1(C(=O)Nc3cc(Cl)ccc31)N(c1cc(Cl)c(=O)n(C)c1)C2=O (stereo not drawn) [Example 53, 6-chloro-5′-(5-chloro-1-methyl-6-oxo-1,6-dihydropyridin-3-yl)-3′-isopropyl-2′-(2-methoxyphenyl)-3′H-spiro[dihydroindole-3,4′-pyrrolo[3,4-d]imidazole]-2,6′(5′H)-dione]	better
COc1ccc(C)cc1-c1nc2c(n1C(C)C)C1(C(=O)Nc3cc(Cl)ccc31)N(c1cc(Cl)ccc1C)C2=O (stereo not drawn) [Example 62, 6-chloro-5′-(5-chloro-2-methylphenyl)-3′-isopropyl-2′-(2-methoxy-5-methylphenyl)-3′H-spiro[dihydroindole-3,4′-pyrrolo[3,4-d]imidazole]-2,6′(5′H)-dione]	better
COc1ccc(N2C(=O)c3nc(-c4ccccc4OC)n(C(C)C)c3C23C(=O)Nc2cc(Cl)ccc23)cc1Cl (stereo not drawn) [Example 63, 6-chloro-5′-(3-chloro-4-methoxyphenyl)-3′-isopropyl-2′-(2-methoxyphenyl)-3′H-spiro[dihydroindole-3,4′-pyrrolo[3,4-d]imidazole]-2,6′(5′H)-dione]	better
COc1cc(N)ccc1-c1nc2c(n1C(C)C)C1(C(=O)Nc3cc(Cl)ccc31)N(c1cc(Cl)ccc1F)C2=O (stereo not drawn) [Example 66, 2′-(4-amino-2-methoxyphenyl)-6-chloro-5′-(5-chloro-2-fluorophenyl)-3′-isopropyl-3′H-spiro[dihydroindole-3,4′-pyrrolo[3,4-d]imidazole]-2,6′(5′H)-dione]	better
COc1cc(N)ccc1-c1nc2c(n1C(C)C)C1(C(=O)Nc3cc(Cl)ccc31)N(c1cc(F)cc(Cl)c1)C2=O (stereo not drawn) [Example 67, 2′-(4-amino-2-methoxyphenyl)-6-chloro-5′-(3-chloro-5-fluorophenyl)-3′-isopropyl-3′H-spiro[dihydroindole-3,4′-pyrrolo[3,4-d]imidazole]-2,6′(5′H)-dione]	better
COc1ccc(CC(=O)N(C)C)cc1-c1nc2c(n1C(C)C)C1(C(=O)Nc3cc(Cl)ccc31)N(c1cc(Cl)ccc1C)C2=O (stereo not drawn) [Example 70, 2-(3-(6-chloro-5′-(5-chloro-2-methylphenyl)-3′-isopropyl-2,6′-dioxo-5′,6′-dihydro-3′H-spiro[dihydroindole-3,4′-pyrrolo[3,4-d]imidazole]-2′-yl)-4-methoxyphenyl)-N,N-dimethylacetamide]	better
COc1cc(N)ccc1-c1nc2c(n1C(C)C)C1(C(=O)Nc3cc(Cl)ccc31)N(c1ccc(F)c(Cl)c1)C2=O (stereo not drawn) [Example 73, 2′-(4-amino-2-methoxyphenyl)-6-chloro-5′-(3-chloro-4-fluorophenyl)-3′-isopropyl-3′H-spiro[dihydroindole-3,4′-pyrrolo[3,4-d]imidazole]-2,6′(5′H)-dione]	better
COc1cc(C(N)=O)ccc1-c1nc2c(n1C(C)C)C1(C(=O)Nc3cc(Cl)ccc31)N(c1cc(Cl)ccc1C)C2=O (stereo not drawn) [Example 77, 4-(6-chloro-5′-(5-chloro-2-methylphenyl)-3′-isopropyl-2,6′-dioxo-5′,6′-dihydro-3′H-spiro[dihydroindole-3,4′-pyrrolo[3,4-d]imidazole]-2′-yl)-3-methoxybenzamide]	better
